# Source: PubChem BioAssay AID1199 (EPA DSSTox, 2008)
# Calls of active or inactive are those of the source.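 Rule for the calls: active = a tumour-causing dose and a tumour site recorded for mice in at least one sex group; inconclusive = only government mouse studies exist and were judged inadequate; inactive = mouse studies exist but none gave tumours.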
# Test system: mouse carcinogenicity bioassay, TD50 from CPDB
# Experiment: DSSTox (CPDBAS) Carcinogenic Potency Database Summary Mouse Bioassay Results
# Settings: TD50_Mouse_Note: TD50_Mouse_mmol was not calculated for this mixture, but Activiity Score is assigned value of 50 to indicate active
# Method in brief: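 Values are TD50 carcinogenic potencies from mouse chronic bioassays, taking the most positive result for each sex-species. Sources are published literature and NCI/NTP studies; target sites reflect author-reported positive findings.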
row,SMILES,outcome
1,COc1cc2c(c3oc(=O)c4c(c13)CCOC4=O)C1C=COC1O2 (centres undefined),active; hematopoietic system

# Same assay, conditions: TD50_Mouse_Note: TD50 is harmonic mean of more than one positive test; TD50_Mouse_mmol was not calculated for this mixture, but Activiity; TargetSites_Mouse_Female: liver
row,SMILES,outcome
1,CC(C)CCCCCCOC(=O)c1ccccc1C(=O)OCCCCCCC(C)C,active; liver

# Same assay, conditions: TD50_Mouse_Note: TD50 is harmonic mean of more than one positive test; TargetSites_Mouse_Female: harderian gland; stomach
row,SMILES,Potency
1,C=CC#N,0.119 mmol/kg/day

# Same assay, conditions: TD50_Mouse_Note: TD50 is harmonic mean of more than one positive test; TargetSites_Mouse_Female: hematopoietic system
row,SMILES,Potency
1,NC(=O)N(CCO)N=O,0.00615 mmol/kg/day
2,O=C1C=CC(=O)C=C1,0.0469 mmol/kg/day

# Same assay, conditions: TD50_Mouse_Note: TD50 is harmonic mean of more than one positive test; TargetSites_Mouse_Female: hematopoietic system; lung
row,SMILES,Potency
1,CCCCNNCCCC,0.213 mmol/kg/day

# Same assay, conditions: TD50_Mouse_Note: TD50 is harmonic mean of more than one positive test; TargetSites_Mouse_Female: liver
row,SMILES,Potency
1,Cc1ccc(N=Nc2c(O)c(S(=O)(=O)O)cc3ccc(S(=O)(=O)O)cc23)c(C)c1,1.49 mmol/kg/day
2,Nc1cc(S(=O)(=O)[O-])cc2cc(S(=O)(=O)[O-])c(N=Nc3ccc(-c4ccc(N=Nc5c(S(=O)(=O)[O-])cc6cc(S(=O)(=O)[O-])cc(N)c6c5O)c(O)c4)cc3O)c(O)c12.[Cu].[Cu].[Na+].[Na+].[Na+].[Na+],0.788 mmol/kg/day
3,CC(Cl)CCl (centres undefined),2.44 mmol/kg/day
4,CC(=O)Nc1ccc(O)cc1,10.7 mmol/kg/day
5,Clc1c(Cl)c(Cl)c(Cl)c(Cl)c1Cl,0.229 mmol/kg/day
6,ClC1(Cl)C2(Cl)C3(Cl)C4(Cl)C(Cl)(Cl)C5(Cl)C3(Cl)C1(Cl)C5(Cl)C24Cl (centres undefined),0.00266 mmol/kg/day

# Same assay, conditions: TD50_Mouse_Note: TD50 is harmonic mean of more than one positive test; TargetSites_Mouse_Female: liver; lung; stomach
row,SMILES,Potency
1,O=P(OCC(Br)CBr)(OCC(Br)CBr)OCC(Br)CBr (centres undefined),0.183 mmol/kg/day

# Same assay, conditions: TD50_Mouse_Note: TD50 is harmonic mean of more than one positive test; TargetSites_Mouse_Female: lung
row,SMILES,Potency
1,CCCCNN,0.0971 mmol/kg/day
2,C=C1C/C(=C/C)C(=O)O[C@@H]2CCN3CC=C(COC(=O)[C@@]1(O)CO)[C@H]23,0.00564 mmol/kg/day
3,NC(=O)NNc1ccccc1,1.09 mmol/kg/day
4,C=CCNNCC=C,0.183 mmol/kg/day

# Same assay, conditions: TD50_Mouse_Note: TD50 is harmonic mean of more than one positive test; greater than ten-fold variation among TD50 values for positive res; TargetSites_Mouse_Female: gall bladder; liver; lung; vascular system
row,SMILES,Potency
1,CN(N)C=O,0.0185 mmol/kg/day

# Same assay, conditions: TD50_Mouse_Note: TD50 is harmonic mean of more than one positive test; harmonic mean of TD50 includes a value for upper 99% confidence li; TargetSites_Mouse_Female: liver
row,SMILES,Potency
1,CC(N)=S,0.117 mmol/kg/day
2,Nc1ccc2oc3ccccc3c2c1,0.0231 mmol/kg/day

# Same assay, conditions: TD50_Mouse_Note: TD50 is harmonic mean of more than one positive test; no positive results are statistically significant; TargetSites_Mouse_Female: large intestine
row,SMILES,Potency
1,COc1cc(CNC(=O)CCCC/C=C/C(C)C)ccc1O,0.547 mmol/kg/day

# Same assay, conditions: TD50_Mouse_Note: no positive results
row,SMILES,outcome
1,NC(CCC(=O)O)C(=O)O (centres undefined),inactive; no positive results
2,CCCCCCCCCCCCCCCC(=O)OC/C=C(C)/C=C/C=C(C)/C=C/C1=C(C)CCCC1(C)C,inactive; no positive results

# Same assay, conditions: TD50_Mouse_Note: no positive results; TargetSites_Mouse_Female: no positive results
row,SMILES,outcome
1,COc1cc(/C=C/C(=O)O[C@H]2CC[C@]34C[C@]35CC[C@]3(C)[C@@H]([C@H](C)CCC=C(C)C)CC[C@@]3(C)[C@@H]5CC[C@H]4C2(C)C)ccc1O,inactive; no positive results
2,OCCO,inactive; no positive results
3,O=S(=O)(O)c1ccc(N=Nc2c(O)ccc3cc(S(=O)(=O)O)ccc23)cc1,inactive; no positive results
4,O=C1OC(=O)c2ccccc21,inactive; no positive results
5,CNc1ncnc2nc[nH]c12,inactive; no positive results
6,CCN(CC)C(=S)[S-].CCN(CC)C(=S)[S-].[Zn+2],inactive; no positive results
7,c1ccc2c(c1)Nc1ccccc1S2,inactive; no positive results
8,NC(=O)CCCCC(N)=O,inactive; no positive results
9,Nc1nc(N)nc(N)n1,inactive; no positive results
10,OB(O)O,inactive; no positive results
11,OC(Cn1cncn1)(Cn1cncn1)c1ccc(F)cc1F,inactive; no positive results
12,Clc1ccc2c(c1)Oc1ccc(Cl)cc1O2,inactive; no positive results
13,CCn1cc(C(=O)O)c(=O)c2cc3c(cc21)OCO3,inactive; no positive results
14,CCOC(=O)C(C)(C)Oc1ccc(Cl)cc1,inactive; no positive results
15,CCN(CC)CCOc1ccc(/C(=C(\Cl)c2ccccc2)c2ccccc2)cc1,inactive
16,CN1C(=O)C(O)N=C(c2ccccc2)c2cc(Cl)ccc21 (centres undefined),inactive; no positive results
17,O=Nc1ccc(NO)cc1,inactive; no positive results
18,[S-]c1nc2ccccc2s1.[S-]c1nc2ccccc2s1.[Zn+2],inactive; no positive results
19,Cc1noc(NS(=O)(=O)c2ccc(N)cc2)c1C,inactive; no positive results
20,Nc1ccc(N=Nc2ccc(N)cc2)cc1,inactive; no positive results
21,CNC(=O)Oc1cccc2c1OC(C)(C)C2,inactive; no positive results
22,Cc1cc(Cl)ccc1OCC(=O)O,inactive; no positive results
23,F,inactive; no positive results
24,CCOC(=O)CBr,inactive
25,ClCC1CO1 (centres undefined),inactive

row,SMILES,outcome
1,FC(F)OC(F)(F)C(F)Cl (centres undefined),inactive; no positive results
2,O=C(O)CC[N+](=O)[O-],inactive; no positive results
3,Nc1ccc(N)c2c1C(=O)c1c(N)ccc(N)c1C2=O,inactive; no positive results
4,CCCCOC(=O)COc1ccc(Cl)cc1Cl,inactive; no positive results
5,C=C(C)C,inactive; no positive results
6,Cc1ccc(C)c(OCCCC(C)(C)C(=O)O)c1,inactive; no positive results
7,Cc1c(N(C)C)c(=O)n(-c2ccccc2)n1C,inactive; no positive results
8,O=S1(=O)CC=CC1,inactive; no positive results
9,CCN(CC)CC#CC(C)(C)OC(=O)C(O)(c1ccccc1)C1CCCCC1 (centres undefined),inactive; no positive results
10,S=c1[nH]c2ccccc2s1,inactive; no positive results
11,CC(C)C[C@H]1C(=O)N2CCC[C@H]2[C@]2(O)O[C@](NC(=O)[C@@H]3C=C4c5cccc6[nH]c(Br)c(c56)C[C@H]4N(C)C3)(C(C)C)C(=O)N12,inactive; no positive results
12,CC(=O)NNC(C)=O,inactive; no positive results
13,C=Cc1cccc(C)c1,inactive; no positive results
14,CC(C)NCC(O)c1ccc2ccccc2c1 (centres undefined),inactive; no positive results
15,N[C@@H](Cc1c[nH]c2ccccc12)C(=O)O,inactive; no positive results
16,CC(C)Oc1ccc(Nc2ccccc2)cc1,inactive; no positive results
17,O=C1NS(=O)(=O)c2ccccc21,inactive; no positive results
18,Nc1ccc(Nc2ccccc2)cc1,inactive; no positive results
19,CCCCCCCCCc1ccc(OCCOCCO)cc1,inactive
20,C1N2CN3CN1CN(C2)C3,inactive; no positive results
21,CC(CN1c2ccccc2Sc2ccccc21)N(C)C (centres undefined),inactive; no positive results
22,O=C([O-])C(=O)O.O=C([O-])C(=O)O.[K+].[K+].[O]=[Ti],inactive; no positive results
23,CCc1cccc2c3c([nH]c12)C(CC)(CC(=O)O)OCC3 (centres undefined),inactive; no positive results
24,CCCCC(C)(O)C/C=C/[C@H]1[C@H](O)CC(=O)[C@@H]1CCCCCCC(=O)OC (some centres undefined),inactive; no positive results

# Same assay, conditions: TD50_Mouse_Note: only experiment is NCI/NTP bioassay inadequate; TargetSites_Mouse_Female: NTP bioassay inadequate
row,SMILES,outcome
1,Nc1ccc2cc3ccc(N)cc3nc2c1,ntp bioassay inadequate

# Same assay, conditions: TD50_Mouse_Note: positive test results only by intraperitoneal or intravenous injection; TD50 is harmonic mean of more than one positive; TargetSites_Mouse_Female: hematopoietic system
row,SMILES,Potency
1,S=P(N1CC1)(N1CC1)N1CC1,0.00118 mmol/kg/day

# Same assay, conditions: TD50_Mouse_Note: positive test results only by intraperitoneal or intravenous injection; TargetSites_Mouse_Female: peritoneal cavity
row,SMILES,Potency
1,ClCOCc1ccc(COCCl)cc1,0.0132 mmol/kg/day

# Same assay, conditions: TargetSites_Mouse_BothSexes: lung
row,SMILES,Potency
1,CC/C=C(/CC)[N+](=O)[O-],0.00268 mmol/kg/day

# Same assay, conditions: TargetSites_Mouse_BothSexes: no positive results
row,SMILES,outcome
1,O=C(O)C1[O][Sb]2[O]C(=O)C([O]2)C(C(=O)O)[O][Sb]2[O]C(=O)C1[O]2 (centres undefined),inactive

# Same assay, conditions: TargetSites_Mouse_Female: harderian gland; pituitary gland
row,SMILES,Potency
1,CC(I)C1OCC(CO)O1 (centres undefined),0.535 mmol/kg/day

# Same assay, conditions: TargetSites_Mouse_Female: hematopoietic system
row,SMILES,Potency
1,C=CCOC(=O)CC(C)C,0.442 mmol/kg/day

# Same assay, conditions: TargetSites_Mouse_Female: hematopoietic system; lung; stomach
row,SMILES,Potency
1,ClC(Cl)(Cl)c1ccccc1,0.00203 mmol/kg/day

# Same assay, conditions: TargetSites_Mouse_Female: liver
row,SMILES,Potency
1,CCCCC(CC)CO (centres undefined),12.9 mmol/kg/day

# Same assay, conditions: TargetSites_Mouse_Female: lung
row,SMILES,Potency
1,c1ccc2ccccc2c1,1.27 mmol/kg/day

# Same assay, conditions: TargetSites_Mouse_Female: lung; stomach; urinary bladder
row,SMILES,Potency
1,Cl/C=C/CCl,0.447 mmol/kg/day

# Same assay, conditions: TargetSites_Mouse_Female: no positive results
row,SMILES,Potency
1,CCCC(Cl)CCC(Cl)CCC(Cl)CCC(Cl)CCC(Cl)CCC(Cl)CCC(C)Cl (centres undefined),11.6 mmol/kg/day
2,Cl/C=C/CCl,1.06 mmol/kg/day
3,CCOc1ccccc1C(N)=O,3.11 mmol/kg/day
4,Cc1ccc(N=Nc2c(O)ccc3ccccc23)c([N+](=O)[O-])c1,116 mmol/kg/day
5,CCNC(=O)Nc1ncc([N+](=O)[O-])s1,3.51 mmol/kg/day

# Same assay, conditions: TargetSites_Mouse_Female: vascular system
row,SMILES,Potency
1,Nc1ccccc1-c1ccccc1,5.45 mmol/kg/day
